# Test results: patent publication US20170274032A1, “PHARMACEUTICAL COMPOSITIONS FOR TREATING ANXIETY” (Beijing Wonner Biotech. Ltd. Co., priority 2007, published 2017)
# Assays:
# Kunming (KM) mice [1] = experiment: Mouse light-dark transition experiment (Experiment 2); format: in vivo
# Description: 2.1 Experimental animals: Kunming (KM) mice, male, 24˜26 g of body weight, secondary, are provided by the Experimental Animal Science Department of Capital Medical University, Beijing.
# 2.2 Experimental pharmaceuticals: The pharmaceutical of Embodiment 4 is provided by Beijing Wonner Biotech. Ltd. Co., and Diazepam is the product of Tianjin Jinhuei Amino Acid Co. Ltd.
# 2.3 Experimental equipment: Self-made light-dark transition box.
# 2.4 Dose designs: 1. High dose of Embodiment 4 (80 mg/kg/d); 2. middle dose of Embodiment 4 (40 mg/kg/d); and 3. low dose of Embodiment 4 (20 mg/kg/d).
# (§1) 2.5.1 Group division and administration of drug: The mice are grouped randomly as 5 groups, and 10 mice are in each group. 1. High dose of Embodiment 4 (80 mg/kg); 2. middle dose of Embodiment 4 (40 mg/kg); 3. low dose of Embodiment 4 (20 mg/kg); 4. […]
# (§2) Mouse light-dark transition test: The dark chamber occupies one third of the light-dark transition chamber (44 cm×21 cm×21 cm), and the top is capped. […] The times that the mouse enters into the dark chamber and returns to the light chamber within 10 minutes are determined, and the times thereof are the index for evaluating the anti-anxiety function of the drugs.
# 2.5.3 Statistic calculation: The experimental data are represented as X±SD, and the experimental result is calculated as one-way ANOVA by SPSS 11.5 statistic software.
# Kunming (KM) mice [2] = experiment: Mouse light-dark transition experiment (Experiment 1); format: in vivo
# Text: 1.1 Experimental animals: Kunming (KM) mice, male, 24˜26 g of body weight, secondary, are provided by the Experimental Animal Science Department of Capital Medical University, Beijing.
# 1.2 Experimental pharmaceuticals: The pharmaceutical of Embodiment 1 is provided by Beijing Wonner Biotech. Ltd. Co., and Diazepam is the product of Tianjin Jinhuei Amino Acid Co. Ltd.
# 1.3 Experimental equipment: Self-made light-dark transition box.
# as §1, with “1.5.1 Group” for “2.5.1 Group”, “Embodiment 1” for “Embodiment 4”, “4. Diazepam (2.5 mg/kg); and 5. physiological saline (normal saline, NS).” for “4.”
# as §2
# 1.5.3 Statistic calculation: The experimental data are represented as X±SD, and the experimental result is calculated as one-way analysis of variance (one-way ANOVA) by SPSS 11.5 statistic software.
# [3] = in the human body; cited from earlier work
# [4] = 2.5 mg/kg, fed into the stomach once daily for 7 days, test 1 hour after last administration, within 10 minutes, X±SD, 10 mice
SMILES,Times of passing from dark chamber to light chamber (Kunming (KM) mice [1]; [4]),"Effect on the times that the mouse passes from the dark chamber to the light chamber, in words (Kunming (KM) mice [1]; compared with normal saline, high, middle and low doses of Embodiment 4, Diazepam 2.5 mg/kg)",Times of passing from dark chamber to light chamber (Kunming (KM) mice [2]; [4]),"Effect on the times that the mouse passes from the dark chamber to the light chamber, in words (Kunming (KM) mice [2]; compared with physiological saline, high, middle and low doses of Embodiment 1, Diazepam 2.5 mg/kg)",Efficiency of conversion of glycyrrhizic acid to glycyrrhetinic acid [3]
CN1C(=O)CN=C(c2ccccc2)c2cc(Cl)ccc21 [Diazepam],11.7 ± 4.47,significantly increase,11.3 ± 4.54,significantly increase,
CC1(C)[C@@H](O[C@H]2O[C@H](C(=O)O)[C@@H](O)[C@H](O)[C@H]2O[C@@H]2O[C@H](C(=O)O)[C@@H](O)[C@H](O)[C@H]2O)CC[C@]2(C)[C@H]3C(=O)C=C4[C@@H]5C[C@@](C)(C(=O)O)CC[C@]5(C)CC[C@@]4(C)[C@]3(C)CC[C@@H]12 [glycyrrhizic acid],,,,,~100%
